System: cyclophosphamide-induced bladder overactivity
Assay: Subacute bladder irritation by cyclophosphamide, cystometrograms, i.v. administration
Format: in vivo
Settings: CYP-treated rats, after administration
Description: Cystometrograms (CMGs) are performed under urethane anesthesia (1 g/kg s.c.) using a catheter inserted into the bladder through the bladder dome via a midline abdominal incision. Saline is infused at a rate of 0.04 ml/min to elicit repetitive bladder contractions. Effects of intravenous (i.v.) injection of cannabinoid analogs and analogs of (6aR,10aR)-Δ^8-Tetrahydrocannabinol-11-oic Acids on bladder overactivity induced by either intravesical administration of acetic acid solution or one day treatment with cyclophosphamide are investigated. […] Thus, these Compound analogs can be effective for the treatment of pain and urinary frequency symptoms in patients with painful bladder syndrome/interstitial cystitis.
One day after intraperitoneal injection of cyclophosphamide (CYP, 150 mg/kg), control CMGs are recorded for 1 to 2 hour prior to i.v. administration of Compound analog or vehicle. See, example i, above. Following administration of Compound analog, changes in cystometric parameters such as ICIs, MVP, PT and BP are recorded to evaluate the effects of Compound analog on cyclophosphamide-induced bladder overactivity.

CCCCCCC(C)(C)c1cc(O)c2c(c1)OC(C)(C)[C@@H]1CC=C(C(=O)O)C[C@@H]21 [IP-751]
No significant changes: change in baseline pressure (BP) | change in maximum voiding pressure (MVP) | change in pressure threshold (PT)

— patent US20060128738A1, “Treatment of interstitial cystitis using cannabinoid analogs” (Indevus Pharmaceuticals, Inc., priority 2004, published 2006)
